Test results from PMC6013238, “Development of novel NEMO-binding domain mimetics for inhibiting IKK/NF-κB activation” (PLoS Biology, 2018).

System: p-IκBα and COX-2
Test: LPS-induced acute inflammation, western blot of p-IκBα and COX-2 in lung and liver
Assay type: in vivo, mouse
Conditions: acute treatment, LPS 10 mg/kg
Procedure: Fig 6 Newly identified NBD mimetics suppress LPS-induced acute inflammation in vivo. (A) The bioavailability property of SR12460, SR12343, SR12454, and SR11481. Concentrations of NBD mimetics were determined in plasma, brain, muscle, spleen, and liver 2 h post a single i.p. injection of 10 mg/kg of drugs; n = 3 per group. (B) Shown is the model to induce LPS-mediated acute inflammation and the treatment regimen with NBD mimetics. Mouse image via http://www.clker.com/clipart-mice-blank.html (copyright-free). (C) NBD mimetics suppressed LPS-induced acute inflammation in liver and lung by down-regulating NF-κB target gene expression. Vehicle, SR12343, SR12460, and 8K-NBD peptide were dosed at 10 mg/kg 30 min prior to the LPS treatment. Acute inflammation was induced by i.p. injection of 10 mg/kg LPS. Lung and liver were collected 2–4 h post injection, and mRNA was extracted for qRT-PCR analysis. (D, E) Western blot analysis was performed to probe for the expression of p-IκBα and COX-2 at protein level in liver and lung tissues. (F) Serum levels of IL-6 were determine by ELISA. n = 3–8 each group. *P < 0.05, **P < 0.01. […] COX-2, cyclooxygenase 2; IL-6, interleukin 6; i.p., intraperitoneal; LPS, lipopolysaccharide; NBD, NEMO-binding domain; n.d., nondetectable; NEMO, NF-κB essential modulator; NF-κB, nuclear factor κB; qRT-PCR, quantitative real-time polymerase chain reaction. […]

O=C(CNc1ccc(Cl)cn1)NCCc1cccc(Br)c1 [SR12343]
Phosphorylation of IκBα and levels of COX-2 in lung and liver (western blot): reduced
